Reference: the supplement of paper PMC13386468

Tests used:
Assay in all cases: IC50 for competition of protein binding to Kinobeads
Details in all cases: assay detail: Kinobeads competition in P. falciparum blood-stage lysate
UniProt Q8IJ37 = biological target: UniProt Q8IJ37
UniProt Q8I202 = biological target: UniProt Q8I202
UniProt Q8IIB7 = biological target: UniProt Q8IIB7
UniProt Q7K6B0 = biological target: UniProt Q7K6B0
UniProt Q8IEE5 = biological target: UniProt Q8IEE5
UniProt Q8IE99 = biological target: UniProt Q8IE99
UniProt Q8IHR8 = biological target: UniProt Q8IHR8
UniProt C6KTB3 = biological target: UniProt C6KTB3
UniProt Q8IL57 = biological target: UniProt Q8IL57
UniProt Q8I3T5 = biological target: UniProt Q8I3T5
UniProt Q8IKI9 = biological target: UniProt Q8IKI9
UniProt Q8IE76 = biological target: UniProt Q8IE76
UniProt Q8IJ34 = biological target: UniProt Q8IJ34
UniProt Q7K6A0 = biological target: UniProt Q7K6A0
UniProt Q8IBS5 = biological target: UniProt Q8IBS5
Chain of UniProt Q8IBS5 (Q8IBS5 whole entry): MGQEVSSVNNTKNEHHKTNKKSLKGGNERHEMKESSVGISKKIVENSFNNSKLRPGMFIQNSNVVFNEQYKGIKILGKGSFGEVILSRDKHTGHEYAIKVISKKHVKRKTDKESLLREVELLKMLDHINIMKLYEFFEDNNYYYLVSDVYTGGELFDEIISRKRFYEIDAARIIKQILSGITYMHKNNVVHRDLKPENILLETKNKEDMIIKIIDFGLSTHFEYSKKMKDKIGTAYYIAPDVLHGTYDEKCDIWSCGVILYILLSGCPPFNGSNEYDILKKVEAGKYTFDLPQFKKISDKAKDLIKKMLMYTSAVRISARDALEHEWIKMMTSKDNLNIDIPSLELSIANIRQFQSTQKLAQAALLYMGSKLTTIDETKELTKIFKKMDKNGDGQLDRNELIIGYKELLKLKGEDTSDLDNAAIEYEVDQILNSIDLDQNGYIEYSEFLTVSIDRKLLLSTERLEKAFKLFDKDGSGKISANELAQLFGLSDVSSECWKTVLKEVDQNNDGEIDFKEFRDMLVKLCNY

UniProt Q8IAX6 = biological target: UniProt Q8IAX6
UniProt C6KSW5 = biological target: UniProt C6KSW5
UniProt Q8IIU5 = biological target: UniProt Q8IIU5
UniProt Q8IDD4 = biological target: UniProt Q8IDD4
UniProt Q8IL11 = biological target: UniProt Q8IL11
Chain of UniProt Q8IL11 (Q8IL11 whole entry): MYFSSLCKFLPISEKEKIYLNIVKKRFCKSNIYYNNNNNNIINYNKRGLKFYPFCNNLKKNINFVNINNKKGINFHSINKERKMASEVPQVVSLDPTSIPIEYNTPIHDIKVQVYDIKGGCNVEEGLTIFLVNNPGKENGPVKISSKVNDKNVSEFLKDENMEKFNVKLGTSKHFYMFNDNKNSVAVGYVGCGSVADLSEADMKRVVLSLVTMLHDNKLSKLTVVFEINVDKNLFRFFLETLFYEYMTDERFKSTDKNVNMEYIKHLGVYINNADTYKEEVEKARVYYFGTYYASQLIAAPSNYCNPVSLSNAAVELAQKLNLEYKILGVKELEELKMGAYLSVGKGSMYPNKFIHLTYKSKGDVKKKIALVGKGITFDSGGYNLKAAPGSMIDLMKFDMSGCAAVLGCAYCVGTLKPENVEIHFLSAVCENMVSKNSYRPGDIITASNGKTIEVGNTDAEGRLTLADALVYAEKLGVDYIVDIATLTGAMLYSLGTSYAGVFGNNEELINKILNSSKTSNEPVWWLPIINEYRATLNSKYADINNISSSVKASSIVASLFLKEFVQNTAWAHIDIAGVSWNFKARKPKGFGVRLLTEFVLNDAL

UniProt Q8I5X8 = biological target: UniProt Q8I5X8
UniProt Q8I4R5 = biological target: UniProt Q8I4R5
UniProt Q8I5M2 = biological target: UniProt Q8I5M2
UniProt Q8I2F2 = biological target: UniProt Q8I2F2
UniProt Q8I1V0 = biological target: UniProt Q8I1V0
UniProt Q8I6T3 = biological target: UniProt Q8I6T3
UniProt O96258 = biological target: UniProt O96258
UniProt Q8IDZ8 = biological target: UniProt Q8IDZ8
UniProt Q7KQL8 = biological target: UniProt Q7KQL8
Chain of UniProt Q7KQL8 (Q7KQL8 whole entry): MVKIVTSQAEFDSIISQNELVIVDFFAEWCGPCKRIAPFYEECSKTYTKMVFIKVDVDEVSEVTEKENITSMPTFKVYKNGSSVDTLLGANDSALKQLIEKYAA

UniProt Q8II71 = biological target: UniProt Q8II71
UniProt Q8I5Q6 = biological target: UniProt Q8I5Q6
UniProt Q8IDH5 = biological target: UniProt Q8IDH5
UniProt C6KSV2 = biological target: UniProt C6KSV2
UniProt Q8IJD4 = biological target: UniProt Q8IJD4
Chain of UniProt Q8IJD4 (Q8IJD4 whole entry): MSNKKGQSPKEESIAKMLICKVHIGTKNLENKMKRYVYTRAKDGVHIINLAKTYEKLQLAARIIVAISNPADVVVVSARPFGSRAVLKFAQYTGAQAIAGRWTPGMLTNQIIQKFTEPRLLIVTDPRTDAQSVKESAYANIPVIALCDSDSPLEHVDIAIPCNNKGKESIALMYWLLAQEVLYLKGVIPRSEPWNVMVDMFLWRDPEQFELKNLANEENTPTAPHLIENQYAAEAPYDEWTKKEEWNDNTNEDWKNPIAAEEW

UniProt Q8IJZ7 = biological target: UniProt Q8IJZ7
UniProt Q8IIL5 = biological target: UniProt Q8IIL5
UniProt C0H4A6 = biological target: UniProt C0H4A6
UniProt Q8IBN1 = biological target: UniProt Q8IBN1
UniProt Q8I2W2 = biological target: UniProt Q8I2W2
UniProt C0H530 = biological target: UniProt C0H530
UniProt Q8IBQ6 = biological target: UniProt Q8IBQ6
UniProt Q8IDG2 = biological target: UniProt Q8IDG2
UniProt Q8IB73 = biological target: UniProt Q8IB73
UniProt Q8I2P8 = biological target: UniProt Q8I2P8
UniProt Q9U0K8 = biological target: UniProt Q9U0K8
UniProt Q8IBQ9 = biological target: UniProt Q8IBQ9
UniProt Q8I3N3 = biological target: UniProt Q8I3N3
UniProt O97241 = biological target: UniProt O97241
UniProt C6KSV0 = biological target: UniProt C6KSV0
UniProt Q8I5B2 = biological target: UniProt Q8I5B2
UniProt Q8IJJ0 = biological target: UniProt Q8IJJ0

Measured: IC50
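Further: native unpurified kinases from lysate captured on beads bearing immobilized kinase inhibitors, with bead-bound kinases quantified by mass spectrometry across compound doses.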

O=c1[nH]c2ccc(Cl)cc2c(NC2CN3CCC2CC3)c1-c1nc2ccccc2[nH]1 (stereo unspecified) [CHIR-124]
0.865 µM: UniProt Q7K6A0
> 20 µM: UniProt Q8IJ37 | UniProt Q8I202 | UniProt Q8IIB7 | UniProt Q7K6B0 | UniProt Q8IEE5 | UniProt Q8IE99 | UniProt Q8IHR8 | UniProt C6KTB3 | UniProt Q8IL57 | UniProt Q8I3T5 | UniProt Q8IKI9 | UniProt Q8IE76 | UniProt Q8IJ34 | UniProt Q8IBS5 | UniProt Q8IAX6 | UniProt C6KSW5 | UniProt Q8IIU5 | UniProt Q8IDD4 | UniProt Q8IL11 | UniProt Q8I5X8 | UniProt Q8I4R5 | UniProt Q8I5M2 | UniProt Q8I2F2 | UniProt Q8I1V0 | UniProt Q8I6T3 | UniProt O96258 | UniProt Q8IDZ8 | UniProt Q7KQL8 | UniProt Q8II71 | UniProt Q8I5Q6 | UniProt Q8IDH5 | UniProt C6KSV2 | UniProt Q8IJD4 | UniProt Q8IJZ7 | UniProt Q8IIL5 | UniProt C0H4A6 | UniProt Q8IBN1 | UniProt Q8I2W2 | UniProt C0H530 | UniProt Q8IBQ6 | UniProt Q8IDG2 | UniProt Q8IB73 | UniProt Q8I2P8 | UniProt Q8IBQ9 | UniProt Q8I3N3 | UniProt O97241 | UniProt C6KSV0 | UniProt Q8I5B2 | UniProt Q8IJJ0
5.2 µM: UniProt Q9U0K8
